Columns and labels:
[1] = tested on: microglial cells; assay: LPS-induced nitrite production (Griess) in primary microglial cultures; assay type: cell-based, rat; details: microglia
Protocol: Example 8: DMT, DET, DPT and 5-MeO-DMT administration in vitro prevents inflammation in rat primary glial cells. […] Rat primary glial cell cultures were prepared from the cerebral cortex of 3 day old rats which were dissected, dissociated, and incubated with 0.25% trypsin/EDTA at 37° C. for 1 h. After centrifugation, the pellet was washed three times with HBSS (Gibco) and the cells were plated in poly-D-lysine (20 μg/mL) pretreated flasks (75 cm2). After 7-10 days, the flasks were agitated in an orbital shaker for 4 h at 230 rpm at 37° C. and non-adherent microglial cells were isolated and plated. Then Dulbecco's Modified Eagle's Medium (DMEM) was added to the flasks, which were agitated in a horizontal shaker at 260 rpm at 37° C. After overnight agitation, the supernatant (oligodendrocytes and some remaining microglial cells) was removed, and astrocytes (adherent cells) were collected. The purity of the cultures was >95%, as determined by immunofluorescence analysis using an anti-glial fibrillary acidic protein (GFAP; clone G-A-5; Sigma-Aldrich) antibody to identify astrocytes, and an anti-Iba1 (Wako Catalog No. 019-19741) antibody to identify microglial cells. On attaining semiconfluence, cells were administered each of the test tryptamines at 1 μM or with the combination test tryptamine+Ritanserin (Rit at 1 μM) 2 h before exposure to lipopolysaccharide (LPS, 10 μg/mL; Sigma-Aldrich) and kept in the presence of each drug or drug combination for 24 h. In combination studies, Rit was added to medium 1h before administration of the corresponding tryptamine. Vehicle-treated cultures were used as a control. After the 24 h drug exposure period, cultures were tested to assess nitrite release. To quantify nitrite concentrations in culture medium, supernatants of glial cultures were collected and mixed with an equal volume of Griess reagent (Sigma-Aldrich). Samples were then incubated at room temperature for 15 min and absorbance was measured at 540 nm on a microplate reader. Results are expressed as the mean±SEM of six replications in three different experiments

[2] = tested on: hippocampal subgranular neurogenic niche; assay: Short-term (4 days) in vivo activation of the hippocampal subgranular neurogenic niche (BrdU); parameters: species or system C57BL/6 mice; details: DMT 0.1 μg/animal, lateral ventricle, sacrificed day 5
Protocol: Adult male C57BL/6 mice (obtained from Charles River Labs) were injected in the lateral ventricle (coordinates: from bregma, posterior −1 mm, lateral +1.3 mm, ventral +2 mm, according to the atlas of Paxinos and Franklin (Paxinos G, Franklin KBJ. The Mouse Brain in Stereotaxic Coordinates. 4. San Diego: Academic Press; 2012)), using a stereotaxic apparatus (Kopf Instruments, CA) with DMT (0.1 μg/animal), alone or in combination with the selective Sigma-1 BD1063 (BD, 0.2 μg/animal, Sigma, catalog number SML0276), the mixed 5-HT2A/1A receptor antagonist methiothepin (Met, 0.2 μg/animal, Sigma catalog number M149), or the selective 5-HT1A receptor antagonist WAY100635 (WAY, 0.2 μg/animal, ABCAM catalog number ab120550). Prior to the injection, mice were anesthetized by intraperitoneal injection of ketamine (60 mg/kg) and medetomidine (0.125 mg/kg). […] The boundaries of these nervous system regions were determined with reference to internal anatomic landmarks (Paxinos G, Franklin KBJ. The Mouse Brain in Stereotaxic Coordinates. 4. San Diego: Academic Press; 2012). For DG area selection, images were analyzed using computer-assisted image analysis software (Soft Imaging System Corporation, Lakewood, Colo., http://www.soft-imaging.com). Positive cells, which intersected the uppermost focal plane (exclusion plane) and the lateral exclusion boundaries of the counting frames, were not counted. […]

[3] = tested on: Human SH-SY5Y dopaminergic cells; assay: 6-OHDA in vitro model of Parkinson's Disease, nitrite quantification (Griess); assay type: cell-based; details: DMT 1 μM 1 h, then 6-OHDA 30 μM 24 h

`CN(C)CCc1c[nH]c2ccccc12` [DMT, N,N-dimethyltryptamine] was tested, and the “reduction of LPS-induced nitrite in the presence of Rit” value ([1]; Rit 1 μM 1 h before tryptamine 1 μM, then LPS 10 μg/mL 24 h) was “maintained”, the LPS-induced nitrite increases ([1]; tryptamine 1 μM before LPS 10 μg/mL, 24 h, vs LPS alone) was “significantly reduced” and the “BrdU staining (proliferation) in the hippocampus” value [2] was “increases”. For the same molecule, the “nitrite production brought about by 6-OHDA” value ([3]; vs 6-OHDA alone) was “significantly reduced” and the “reduction of nitrite levels in the presence of Ritanserin” value ([3]; Rit 1 μM 1 h) was “preserved”.
